According to the supplement of paper PMC8617591:

Experiments:
[1] = test system: Mycobacterium tuberculosis Erdman (autoluminescent); test: total FIC50 (Loewe) at 50% inhibition, three-drug combination (log2); higher = more antagonistic
Method: (§1)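 DiaMOND equipotent three-drug combination dose responses (10 doses, 1.5- or 2-fold spacing, centred on IC90) against autoluminescent M. tuberculosis Erdman in 8 in vitro models. Read-out is OD600, or luminescence for the intracellular and dormancy models, normalised to untreated wells. Hill-fit Einf, AUC25 and GRinf are potency metrics; FIC50 and FIC90 are total Loewe fractional inhibitory concentrations as log2 (negative = synergy).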

[2] = test system: Mycobacterium tuberculosis Erdman (autoluminescent); test: total FIC90 (Loewe) at 90% inhibition, three-drug combination (log2); higher = more antagonistic
Method: as §1

[3] = test system: Mycobacterium tuberculosis Erdman (autoluminescent); test: AUC25, normalised area under dose response up to IC25 (three-drug combination) (fraction (0-1)); higher = more potent at low dose
Method: as §1

[4] = test system: Mycobacterium tuberculosis Erdman (autoluminescent); test: GRinf, maximum normalised growth rate inhibition (three-drug combination) (unitless (-1 to 1)); higher = less effect (negative = killing)
Method: as §1

[5] = test system: Mycobacterium tuberculosis Erdman (autoluminescent); test: Einf, fitted maximum growth inhibition of three-drug combination (fraction); higher = stronger maximal inhibition
Method: as §1

CC[C@@H](CO)NCCN[C@@H](CC)CO [ethambutol] + COc1c(N2C[C@@H]3CCCN[C@@H]3C2)c(F)cc2c(=O)c(C(=O)O)cn(C3CC3)c12 [moxifloxacin] + CO[C@H]1/C=C/O[C@@]2(C)Oc3c(C)c(O)c4c(O)c(c(/C=N/N5CCN(C6CCCC6)CC5)c(O)c4c3C2=O)NC(=O)/C(C)=C\C=C\[C@H](C)[C@H](O)[C@@H](C)[C@@H](O)[C@@H](C)[C@H](OC(C)=O)[C@@H]1C [rifapentine]
Details	AUC25, [3]	Einf, [5]	GRinf, [4]	total FIC50, [1]	total FIC90, [2]
in vitro model: acidic pH 5.7, time point: constant (~7 days, model-specific)	0.071	0.869	0.0546	0.231	–
in vitro model: acidic pH 5.7, time point: terminal (~4-5 doublings, model-specific)	0.0263	0.959	-0.0323	0.724	0.104
in vitro model: intracellular J774, time point: constant = terminal	–	0.975	-0.351	–	-1.53

Details	AUC25, [3]	Einf, [5]	GRinf, [4]	total FIC50, [1]	total FIC90, [2]
in vitro model: butyrate, time point: constant (~7 days, model-specific)	0.0619	0.916	0.00267	0.508	–
in vitro model: butyrate, time point: terminal (~4-5 doublings, model-specific)	0.0506	0.961	-0.00309	0.467	-0.223
in vitro model: cholesterol 0.05 mM, time point: constant (~7 days, model-specific)	0.104	0.635	-0.31	0.788	–
in vitro model: cholesterol 0.05 mM, time point: terminal (~4-5 doublings, model-specific)	0.0642	0.834	0.155	1.57	–
in vitro model: cholesterol-high 0.2 mM, time point: constant (~7 days, model-specific)	0.0293	0.932	-0.315	1.07	–
in vitro model: cholesterol-high 0.2 mM, time point: terminal (~4-5 doublings, model-specific)	0.0405	1	-0.787	1.22	0.977
in vitro model: dormancy (butyrate + nitrate, low O2), time point: constant (~7 days, model-specific)	0.0738	0.842	0.339	0.142	–
in vitro model: dormancy (butyrate + nitrate, low O2), time point: terminal (~4-5 doublings, model-specific)	0.116	0.993	-0.177	0.309	0.994
in vitro model: standard 7H9 glycerol, time point: constant = terminal	0.044	0.906	0.0179	0.47	0.148
in vitro model: valerate, time point: constant (~7 days, model-specific)	0.0523	0.893	-0.0774	0.833	–
in vitro model: valerate, time point: terminal (~4-5 doublings, model-specific)	0.0364	0.942	-0.0136	0.843	-0.33

CC[C@@H](CO)NCCN[C@@H](CC)CO [ethambutol] + COc1c(N2C[C@@H]3CCCN[C@@H]3C2)c(F)cc2c(=O)c(C(=O)O)cn(C3CC3)c12 [moxifloxacin] + CO[C@H]1/C=C/O[C@@]2(C)Oc3c(C)c(O)c4c(O)c(c(/C=N/N5CCN(C)CC5)c(O)c4c3C2=O)NC(=O)/C(C)=C\C=C\[C@H](C)[C@H](O)[C@@H](C)[C@@H](O)[C@@H](C)[C@H](OC(C)=O)[C@@H]1C [rifampicin]
Details	AUC25, [3]	Einf, [5]	GRinf, [4]	total FIC50, [1]	total FIC90, [2]
in vitro model: acidic pH 5.7, time point: constant (~7 days, model-specific)	0.0728	0.842	0.00792	0.27	–
in vitro model: acidic pH 5.7, time point: terminal (~4-5 doublings, model-specific)	0.033	0.969	-0.0608	0.591	-0.139
in vitro model: intracellular J774, time point: constant = terminal	–	0.965	-0.353	–	-1.82

Details	AUC25, [3]	Einf, [5]	GRinf, [4]	total FIC50, [1]	total FIC90, [2]
in vitro model: butyrate, time point: constant (~7 days, model-specific)	0.0797	0.924	-0.0218	0.419	–
in vitro model: butyrate, time point: terminal (~4-5 doublings, model-specific)	0.0647	0.966	-0.0188	0.334	-0.296
in vitro model: cholesterol 0.05 mM, time point: constant (~7 days, model-specific)	0.104	0.602	0.0718	0.0825	–
in vitro model: cholesterol 0.05 mM, time point: terminal (~4-5 doublings, model-specific)	0.082	0.876	0.198	0.896	–
in vitro model: cholesterol-high 0.2 mM, time point: constant (~7 days, model-specific)	0.0425	0.937	-0.354	1.01	–
in vitro model: cholesterol-high 0.2 mM, time point: terminal (~4-5 doublings, model-specific)	0.0582	1	-0.753	1.13	1.05
in vitro model: dormancy (butyrate + nitrate, low O2), time point: constant (~7 days, model-specific)	0.0959	0.838	0.346	-0.35	–
in vitro model: dormancy (butyrate + nitrate, low O2), time point: terminal (~4-5 doublings, model-specific)	0.0588	0.985	-0.0843	0.268	-0.495
in vitro model: standard 7H9 glycerol, time point: constant = terminal	0.0299	0.861	0.231	0.166	–
in vitro model: valerate, time point: constant (~7 days, model-specific)	0.0379	0.867	0.0142	0.576	–
in vitro model: valerate, time point: terminal (~4-5 doublings, model-specific)	0.0266	0.93	0.0403	0.645	-0.611

CC[C@@H](CO)NCCN[C@@H](CC)CO [ethambutol] + COc1c(N2C[C@@H]3CCCN[C@@H]3C2)c(F)cc2c(=O)c(C(=O)O)cn(C3CC3)c12 [moxifloxacin] + NC(=O)c1cnccn1 [pyrazinamide]
Details	AUC25, [3]	Einf, [5]	GRinf, [4]	total FIC50, [1]	total FIC90, [2]
in vitro model: acidic pH 5.7, time point: constant (~7 days, model-specific)	0.106	0.781	-0.213	0.429	–
in vitro model: acidic pH 5.7, time point: terminal (~4-5 doublings, model-specific)	0.0713	0.959	-0.294	0.98	0.0827
in vitro model: intracellular J774, time point: constant = terminal	–	0.98	-0.497	–	-0.596

Details	AUC25, [3]	Einf, [5]	GRinf, [4]	total FIC50, [1]	total FIC90, [2]
in vitro model: butyrate, time point: constant (~7 days, model-specific)	0.108	0.926	0.001	0.345	–
in vitro model: butyrate, time point: terminal (~4-5 doublings, model-specific)	0.0814	0.967	-0.00667	0.477	0.431
in vitro model: cholesterol 0.05 mM, time point: constant (~7 days, model-specific)	0.12	0.683	-0.365	–	–
in vitro model: cholesterol 0.05 mM, time point: terminal (~4-5 doublings, model-specific)	0.135	0.8	-0.21	0.703	–
in vitro model: cholesterol-high 0.2 mM, time point: constant (~7 days, model-specific)	0.0703	0.962	-0.373	1.02	–
in vitro model: cholesterol-high 0.2 mM, time point: terminal (~4-5 doublings, model-specific)	0.0603	1	-0.587	1.29	1.24
in vitro model: dormancy (butyrate + nitrate, low O2), time point: constant (~7 days, model-specific)	0.0861	0.816	0.46	-0.23	–
in vitro model: dormancy (butyrate + nitrate, low O2), time point: terminal (~4-5 doublings, model-specific)	0.0923	0.979	-0.107	0.189	-0.144
in vitro model: standard 7H9 glycerol, time point: constant = terminal	0.0574	0.966	-0.145	–	–
in vitro model: valerate, time point: constant (~7 days, model-specific)	0.0872	0.884	-0.169	0.599	–
in vitro model: valerate, time point: terminal (~4-5 doublings, model-specific)	0.0506	0.945	-0.037	0.696	-0.119
